Data: PMC11434868, “Synthesis and Antiproliferative Effect of 3,4,5-Trimethoxylated Chalcones on Colorectal and Prostatic Cancer Cells” (Pharmaceuticals, 2024)
Like-named read-outs stand apart in the source and are kept apart here.

Experiments:
[1] = tested on: HCT116; test: MTT assay, antiproliferative effect on HCT116; assay type: cell-based; conditions: Homo sapiens
Protocol: (§1) Human CRC (HCT116 and HT-29) and PCa (DU145 and PC3) cell lines were purchased from the American Type Culture Collection (ATCC—LGC Standards, Molsheim, France). All cells were grown in RPMI 1640 medium supplemented with 10% FBS, 1% L-glutamine, 100 U/mL penicillin, and 100 μg/mL streptomycin. Cultures were maintained in a humidified atmosphere containing 5% CO2 at 37 °C. Cells were seeded in 75 cm^2 culture flasks at 1.2 × 10^4 cells/cm^2 for HCT116, DU145, and PC3 cells, and 2.0 × 10^4 for HT-29 cells. Cells were grown for 24 h in culture medium prior to exposure or not to obtain the synthesized compounds. Stock solutions (10^−2 M in DMSO) of each compound were diluted in culture medium to obtain appropriate final concentrations.
(§2) • (a) MTT assay: The antiproliferative effect of all compounds was determined using MTT assay (a metabolic activity test). Briefly, cells were seeded in 96-well culture plates at 4 × 10^3 cells/well for HCT116, PC3, and DU145 cells and 6 × 10^3 cells/well for HT-29 cells (100 µL/well), and grown for 24 h in culture medium prior to exposure or not to obtain compounds 1–15 with concentrations ranging from 5 nM to 50 μM. After 24 and 48 h of treatment, MTT (5 mg/mL in PBS) was added and incubated for another 3 h. MTT was then removed from the wells before adding 100 μL/well of DMSO. The optical density was detected with a microplate reader (Multiskan FC, Thermoscientific, Bordeaux, France) at 550 nm and cell viability was expressed as a percentage of each treatment condition compared to control cells. IC50 values were calculated for all compounds from the dose–response curve. Data are expressed as the arithmetic means ± standard error of the mean (SEM) of separate experiments. All experiments were performed at least in triplicate. • (b) Trypan blue dye exclusion method: Cells were grown for 24 h then treated with compounds 10 and 13 at indicated concentrations. After 48 h of treatment, cells were trypsinized and resuspended in complete medium. Each sample was mixed with Trypan blue solution (0.14% in HBSS, Invitrogen-GIBCO, ThermoFisher, Illkirch, France). Colored (non-viable) and dye-excluding (viable) cells were counted with the LUNA-II automated cell Counter (Logos Biosystems; MC2, Aubière, France). The control was normalized to 100% including viable and dead cells. The results indicated on the histograms were expressed as the percentage of cells compared to the control. IC50 values were determined from the percentages of viable cells compared to the control.

[2] = tested on: HT-29; test: MTT assay, antiproliferative effect on HT-29; assay type: cell-based, human
Protocol: as §1, §2

[3] = tested on: DU145; test: MTT assay, antiproliferative effect on DU145; assay type: cell-based; conditions: Homo sapiens
Protocol: as §1, §2

[4] = tested on: PC3; test: MTT assay, antiproliferative effect on PC3; assay type: cell-based; conditions: Homo sapiens
Protocol: as §1, §2

[5] = tested on: cellular microtubules in HeLa cells; test: Quantitative assay of the cellular microtubule content (immunoluminescence); assay type: cell-based; conditions: 30 min incubation
Protocol: The assay was realized as described by Laisne et al.. Briefly, 7500 HeLa cells were seeded in 96-well microplates (#655086, Greiner bioOne, Courtaboeuf, France) in 100 µL of complete medium per well and then incubated at 37 °C in 5% CO2 for 24 h. Cells were then treated for 30 min at 37 °C with the compounds at concentrations ranging from 0.1 to 1000 µM (1 microplate per molecule, 1 concentration per column), with 0.1% DMSO used as […] (6 wells per microplate). After medium aspiration, treated cells were permeabilized for 10 min using 100 µL per well of warmed (37 °C) OPT buffer (80 mM Pipes, 1 mM EGTA, 1 mM MgCl2, 0.5% Triton X-100, and 10% glycerol, pH 6.8). Cells were fixed overnight at room temperature using 100 µL per well of 4% formaldehyde (Sigma Aldrich, #252549, Saint-Quentin-Fallavier, France) in PBS. Cells were washed 3 times in PBS, 0.1% Tween-20 (100 µL per well), then primary anti-alpha-tubulin antibody (clone α3A1), 1:5000 in PBS 2% Bovine Serum Albumin (BSA), was added for 45 min. Cells were washed twice again and secondary anti-mouse antibody coupled to HRP (1:2000 in PBS 2% BSA, #715-035-150, Jackson Immuno-Research Laboratories, Cambridgeshire, UK) was added for 45 min. Then, cells were washed again with PBS and 100 µL of ECL substrate (#170-5061, Bio-Rad Laboratories Inc., Hercules, CA, USA) was injected in each well using the FLUOstar OPTIMA Microplate Reader (BMG Lab technology, Champagny-sur-Marne, France). The luminescent signal was read immediately after ECL injection. IC50 values were calculated using GraphPad Prism software (10.3.1 version) and are presented in the text as means ± SEM of three independent experiments.

[6] = tested on: human CRC (HCT116 and HT-29) and human PCa (DU145 and PC3) cell lines; test: MTT assay, summary statements over the cell lines; assay type: cell-based; conditions: Homo sapiens, 48 h; read-out: IC50 over the four cell lines
Protocol: as §1, §2

[7] = HCT-116, 24 h, read-out: IC50 HCT116 24 h
[8] = HCT-116, 48 h, read-out: IC50 HCT116 48 h
[9] = Homo sapiens, HT-29, 24 h, 24 h, read-out: IC50 HT-29 24 h
[10] = Homo sapiens, HT-29, 48 h, 48 h, read-out: IC50 HT-29 48 h
[11] = DU-145, 24 h, read-out: IC50 DU145 24 h
[12] = DU-145, 48 h, read-out: IC50 DU145 48 h
[13] = PC-3, 24 h, read-out: IC50 PC3 24 h
[14] = PC-3, 48 h, read-out: IC50 PC3 48 h
[15] = 48 h, read-out: IC50 HT-29 48 h

COc1cc(C(=O)/C=C/c2ccccc2O)cc(OC)c1OC [chalcone 1, (E)-3-(2-hydroxyphenyl)-1-(3,4,5-trimethoxyphenyl)prop-2-en-1-one]
IC50 [1, 7]: 4.54 ± 0.65 µM | IC50 [1, 8]: 3.27 ± 0.11 µM | IC50 [2, 9]: 10.8 ± 0.57 µM | IC50 [2, 10]: 9.65 ± 0.12 µM | IC50 [3, 11]: 5.33 ± 0.42 µM | IC50 [3, 12]: 3.6 ± 0.1 µM | IC50 [4, 13]: 5.04 ± 0.29 µM | IC50 [4, 14]: 4.23 ± 0.35 µM

COc1cc(C(=O)/C=C/c2ccc(O)cc2)cc(OC)c1OC [chalcone 3, (E)-3-(4-hydroxyphenyl)-1-(3,4,5-trimethoxyphenyl)prop-2-en-1-one]
IC50 [1, 7]: 11.62 ± 0.06 µM | IC50 [1, 8]: 12.1 ± 0.44 µM | IC50 [2, 9]: 17.9 ± 0.69 µM | IC50 [2, 10]: 15.1 ± 0.46 µM | IC50 [3, 11]: 11.3 ± 0.48 µM | IC50 [3, 12]: 11.2 ± 0.44 µM | IC50 depolymerization of cellular microtubules [5]: no effect | IC50 [4, 13]: 10.94 ± 0.1 µM | IC50 [4, 14]: 9.85 ± 0.43 µM

COc1cc(O)ccc1/C=C/C(=O)c1cc(OC)c(OC)c(OC)c1 [chalcone 4, (E)-3-(4-hydroxy-2-methoxyphenyl)-1-(3,4,5-trimethoxyphenyl)prop-2-en-1-one]
IC50 [1, 7]: 8.79 ± 0.39 µM | IC50 [1, 8]: 3.98 ± 0.22 µM | IC50 [2, 9]: 21.3 ± 0.94 µM | IC50 [2, 10]: 17.7 ± 0.29 µM | IC50 [3, 11]: 4.2 ± 0.2 µM | IC50 [3, 12]: 2.69 ± 0.22 µM | IC50 [4, 13]: 4.8 ± 0.48 µM | IC50 [4, 14]: 3.05 ± 0.12 µM

COc1ccc(O)cc1/C=C/C(=O)c1cc(OC)c(OC)c(OC)c1 [chalcone 5, (E)-3-(5-hydroxy-2-methoxyphenyl)-1-(3,4,5-trimethoxyphenyl)prop-2-en-1-one]
IC50 [1, 7]: 8.72 ± 0.41 µM | IC50 [1, 8]: 4.92 ± 0.49 µM | IC50 [2, 15]: 22.1 ± 0.48 µM | IC50 [2, 9]: 25.2 ± 1.28 µM | IC50 [2, 10]: > 20 µM | IC50 [3, 11]: 5.5 ± 0.26 µM | IC50 [3, 12]: 4.37 ± 0.3 µM | IC50 [4, 13]: 5.54 ± 0.31 µM | IC50 [4, 14]: 4 ± 0.3 µM

COc1ccc(O)c(/C=C/C(=O)c2cc(OC)c(OC)c(OC)c2)c1 [chalcone 6, (E)-3-(2-hydroxy-5-methoxyphenyl)-1-(3,4,5-trimethoxyphenyl)prop-2-en-1-one]
IC50 [1, 7]: 5.27 ± 0.37 µM | IC50 [1, 8]: 3.44 ± 0.42 µM | IC50 [2, 9]: 12.3 ± 0.37 µM | IC50 [2, 10]: 10.6 ± 0.62 µM | IC50 [3, 11]: 2.84 ± 0.14 µM | IC50 [3, 12]: 2.7 ± 0.1 µM | IC50 [4, 13]: 3.31 ± 0.22 µM | IC50 [4, 14]: 2.81 ± 0.16 µM

COc1ccc(/C=C/C(=O)c2cc(OC)c(OC)c(OC)c2)c(O)c1 [chalcone 7, (E)-3-(2-hydroxy-4-methoxyphenyl)-1-(3,4,5-trimethoxyphenyl)prop-2-en-1-one]
IC50 [1, 7]: 13.4 ± 0.21 µM | IC50 [1, 8]: 3.99 ± 0.16 µM | IC50 [2, 9]: 14.4 ± 0.65 µM | IC50 [2, 10]: 11.4 ± 0.68 µM | IC50 [3, 11]: 2.99 ± 0.33 µM | IC50 [3, 12]: 1.33 ± 0.16 µM | IC50 [4, 13]: 2.57 ± 0.44 µM | IC50 [4, 14]: 1.47 ± 0.27 µM

COc1cc(/C=C/C(=O)c2cc(OC)c(OC)c(OC)c2)ccc1O [chalcone 9, (E)-3-(4-hydroxy-3-methoxyphenyl)-1-(3,4,5-trimethoxyphenyl)prop-2-en-1-one]
IC50 [1, 7]: 8.58 ± 0.28 µM | IC50 [1, 8]: 3.48 ± 0.19 µM | IC50 [2, 15]: 26.8 ± 0.4 µM | IC50 [2, 9]: 32.6 ± 0.51 µM | IC50 [2, 10]: > 20 µM | IC50 [3, 11]: 3.75 ± 0.15 µM | IC50 [3, 12]: 2.41 ± 0.08 µM | IC50 [4, 13]: 4.42 ± 0.24 µM | IC50 [4, 14]: 2.97 ± 0.13 µM

COc1cc(C(=O)/C=C/c2ccc(=O)[nH]c2)cc(OC)c1OC [chalcone 11, (E)-5-(3-oxo-3-(3,4,5-trimethoxyphenyl)prop-1-en-1-yl)pyridin-2(1H)-one]
IC50 [6]: > 15 µM | IC50 [1, 7]: 25.2 ± 0.48 µM | IC50 [1, 8]: 16.6 ± 0.79 µM | IC50 [2, 15]: 23.6 ± 0.37 µM | IC50 [2, 9]: 35.6 ± 0.94 µM | IC50 [2, 10]: > 20 µM | IC50 [3, 11]: 22.3 ± 0.76 µM | IC50 [3, 12]: 15.6 ± 0.84 µM | melting point: 217 to 219 °C | IC50 [4, 13]: 24.5 ± 0.64 µM | IC50 [4, 14]: 17.7 ± 0.55 µM

COc1cc(C(=O)/C=C/c2coc3ccccc3c2=O)cc(OC)c1OC [chalcone 12, (E)-3-(3-oxo-3-(3,4,5-trimethoxyphenyl)prop-1-en-1-yl)-4H-chromen-4-one]
IC50 [1, 7]: 14.2 ± 0.41 µM | IC50 [1, 8]: 13.2 ± 0.4 µM | IC50 [2, 9]: 13.6 ± 0.3 µM | IC50 [2, 10]: 13.2 ± 0.42 µM | IC50 [3, 11]: 10.8 ± 0.34 µM | IC50 [3, 12]: 11.7 ± 0.29 µM | melting point: 215 to 217 °C | IC50 [4, 13]: 11.5 ± 0.28 µM | IC50 [4, 14]: 12.2 ± 0.23 µM

COc1cc(C(=O)/C=C/c2coc3ccc(C(C)C)cc3c2=O)cc(OC)c1OC [chalcone 14, (E)-6-isopropyl-3-(3-oxo-3-(3,4,5-trimethoxyphenyl)prop-1-en-1-yl)-4H-chromen-4-one]
IC50 [1, 7]: 15.3 ± 0.52 µM | IC50 [1, 8]: 13.3 ± 0.3 µM | IC50 [2, 9]: 22.9 ± 0.72 µM | IC50 [2, 10]: 17 ± 1.41 µM | IC50 [3, 11]: 13.2 ± 0.49 µM | IC50 [3, 12]: 12.4 ± 0.2 µM | melting point: 183 to 185 °C | IC50 [4, 13]: 14.11 ± 0.04 µM | IC50 [4, 14]: 12.8 ± 0.37 µM

COc1cc(C(=O)/C=C/c2coc3ccc(O)cc3c2=O)cc(OC)c1OC [chalcone 15, (E)-6-hydroxy-3-(3-oxo-3-(3,4,5-trimethoxyphenyl)prop-1-en-1-yl)-4H-chromen-4-one]
IC50 [1, 7]: 5.84 ± 0.28 µM | IC50 [1, 8]: 14.1 ± 0.27 µM | activity against the HT-29 cell line [2]: not active | IC50 [2, 9]: > 50 µM | IC50 [3, 11]: 3.88 ± 0.32 µM | IC50 [3, 12]: 7.09 ± 0.52 µM | IC50 [4, 13]: 6.48 ± 0.4 µM | IC50 [4, 14]: 7.6 ± 0.44 µM
